In PubChem BioAssay (NCI):
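Grown in 96-well plates, cells were treated for 48 hours with each compound at five concentrations. Insufficient inhibition: endpoint recorded as highest concentration tested. The concentration for 50% growth inhibition is given as GI50. TGI: concentration producing complete growth inhibition.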

Experiments:
Assay in all cases: NCI anticancer screen, dose series, 48 h; in the data active means GI50 below about 0.43 µM; inactive means the rest
786-0 renal = system: 786-0 renal
A549 NSCLC = system: A549 NSCLC
ACHN renal = system: ACHN renal
CCRF-CEM leukemia = system: CCRF-CEM leukemia
COLO 205 colon = system: COLO 205 colon
DLD-1 colon = system: DLD-1 colon
EKVX NSCLC = system: EKVX NSCLC
HCC-2998 colon = system: HCC-2998 colon
HCT-15 colon = system: HCT-15 colon
HL-60(TB) leukemia = system: HL-60(TB) leukemia
HOP-18 NSCLC = system: HOP-18 NSCLC
HOP-92 NSCLC = system: HOP-92 NSCLC
IGROV1 ovarian = system: IGROV1 ovarian
K-562 leukemia = system: K-562 leukemia
KM12 colon = system: KM12 colon
LOX IMVI melanoma = system: LOX IMVI melanoma
LXFL 529 NSCLC = system: LXFL 529 NSCLC
M14 melanoma = system: M14 melanoma
MALME-3M melanoma = system: MALME-3M melanoma
MOLT-4 leukemia = system: MOLT-4 leukemia
NCI-H226 lung = system: NCI-H226 lung
NCI-H23 lung = system: NCI-H23 lung
OVCAR-5 ovarian = system: OVCAR-5 ovarian
OVCAR-8 ovarian = system: OVCAR-8 ovarian
RPMI-8226 leukemia = system: RPMI-8226 leukemia
RXF 393 renal = system: RXF 393 renal
SF-268 CNS = system: SF-268 CNS
SF-295 CNS = system: SF-295 CNS
SF-539 CNS = system: SF-539 CNS
SK-MEL-2 melanoma = system: SK-MEL-2 melanoma
SK-MEL-28 melanoma = system: SK-MEL-28 melanoma
SK-OV-3 ovarian = system: SK-OV-3 ovarian
SN12C renal = system: SN12C renal
SNB-19 CNS = system: SNB-19 CNS
SNB-75 CNS = system: SNB-75 CNS
SNB-78 CNS = system: SNB-78 CNS
SR leukemia = system: SR leukemia
SW-620 colon = system: SW-620 colon
TK-10 renal = system: TK-10 renal
UACC-257 melanoma = system: UACC-257 melanoma
UACC-62 melanoma = system: UACC-62 melanoma
UO-31 renal = system: UO-31 renal

CC(C)CC(=O)[O-].CC(C)CC(=O)[O-].N.N.N.N.[Co+3].[O-][Cl+3]([O-])([O-])O.[O-][Cl+3]([O-])([O-])[O-]
inactive: GI50 (786-0 renal) > 100 µM | GI50 (A549 NSCLC) > 100 µM | GI50 (ACHN renal) > 100 µM | GI50 (CCRF-CEM leukemia) > 100 µM | GI50 (COLO 205 colon) > 100 µM | GI50 (DLD-1 colon) > 100 µM | GI50 (EKVX NSCLC) > 100 µM | GI50 (HCC-2998 colon) > 100 µM | GI50 (HCT-15 colon) > 100 µM | GI50 (HL-60(TB) leukemia) > 100 µM | GI50 (HOP-18 NSCLC) > 100 µM | GI50 (HOP-92 NSCLC) > 100 µM | GI50 (IGROV1 ovarian) > 100 µM | GI50 (K-562 leukemia) > 100 µM | GI50 (KM12 colon) > 100 µM | GI50 (LOX IMVI melanoma) > 100 µM | GI50 (LXFL 529 NSCLC) > 100 µM | GI50 (M14 melanoma) > 100 µM | GI50 (MALME-3M melanoma) > 100 µM | GI50 (MOLT-4 leukemia) > 100 µM | GI50 (NCI-H226 lung) > 100 µM | GI50 (NCI-H23 lung) > 100 µM | GI50 (OVCAR-5 ovarian) > 100 µM | GI50 (OVCAR-8 ovarian) > 100 µM | GI50 (RPMI-8226 leukemia) > 100 µM | GI50 (RXF 393 renal) > 100 µM | GI50 (SF-268 CNS) > 100 µM | GI50 (SF-295 CNS) > 100 µM | GI50 (SF-539 CNS) > 100 µM | GI50 (SK-MEL-2 melanoma) > 100 µM | GI50 (SK-MEL-28 melanoma) > 100 µM | GI50 (SK-OV-3 ovarian) > 100 µM | GI50 (SN12C renal) > 100 µM | GI50 (SNB-19 CNS) > 100 µM | GI50 (SNB-75 CNS) > 100 µM | GI50 (SNB-78 CNS) > 100 µM | GI50 (SR leukemia) > 100 µM | GI50 (SW-620 colon) > 100 µM | GI50 (TK-10 renal) > 100 µM | GI50 (UACC-257 melanoma) > 100 µM | GI50 (UACC-62 melanoma) > 100 µM | GI50 (UO-31 renal) > 100 µM
> 100 µM: TGI (786-0 renal) | TGI (A549 NSCLC) | TGI (ACHN renal) | TGI (CCRF-CEM leukemia) | TGI (COLO 205 colon) | TGI (DLD-1 colon) | TGI (EKVX NSCLC) | TGI (HCC-2998 colon) | TGI (HCT-15 colon) | TGI (HL-60(TB) leukemia) | TGI (HOP-18 NSCLC) | TGI (HOP-92 NSCLC) | TGI (IGROV1 ovarian) | TGI (K-562 leukemia) | TGI (KM12 colon) | TGI (LOX IMVI melanoma) | TGI (LXFL 529 NSCLC) | TGI (M14 melanoma) | TGI (MALME-3M melanoma) | TGI (MOLT-4 leukemia) | TGI (NCI-H226 lung) | TGI (NCI-H23 lung) | TGI (OVCAR-5 ovarian) | TGI (OVCAR-8 ovarian) | TGI (RPMI-8226 leukemia) | TGI (RXF 393 renal) | TGI (SF-268 CNS) | TGI (SF-295 CNS) | TGI (SF-539 CNS) | TGI (SK-MEL-2 melanoma) | TGI (SK-MEL-28 melanoma) | TGI (SK-OV-3 ovarian) | TGI (SN12C renal) | TGI (SNB-19 CNS) | TGI (SNB-75 CNS) | TGI (SNB-78 CNS) | TGI (SR leukemia) | TGI (SW-620 colon) | TGI (TK-10 renal) | TGI (UACC-257 melanoma) | TGI (UACC-62 melanoma) | TGI (UO-31 renal)
